# From patent US6420367B1, “Pyrimidine derivatives exhibiting antitumor activity” (Shionogo & Co., Ltd., priority 1998, dated 2002)
# Key:
# [1] = test system: DT-R cells (pRRE3-luc-transfected v-ki-ras-transformed NIH3T3 cells); signal derived from Ras oncogene products; assay: Inhibitory effect against cellular signaling derived from Ras oncogene products: luciferase reporter, dissociation of DT-R from DT-C activity (MAC); type: cell-based, mouse; conditions: minimal tested concentration at which luciferase activities of DT-C cells and DT-R cells dissociated
# How it was run: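 Value is a minimal active concentration: lowest dose where Ras-responsive reporter (DT-R) luciferase diverges from SV40-minimal-promoter control (DT-C). Both transfected v-Ki-ras NIH3T3 lines received 3-fold serial dilutions for 24 h at 37 °C in 10% FCS medium before lysis and luminometry.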
# [2] = test system: DT-C cells (pGV-P-transfected v-ki-ras-transformed NIH3T3 cells); assay: Luciferase activity in control DT-C cells (IC50-C): non-specific transcription-inhibitory effect or cytotoxicity; type: cell-based, mouse; conditions: tested concentration nearest to 50% inhibition in DT-C cells; index of non-specific transcription inhibition or cytotoxicity
# Source text: Test Example 1 Inhibitory Effect Against Cellular Signaling Derived From Ras Oncogene Products
# 1) Establishment of Cell Lines Used in Assay
# Based on the reporter plasmid (pGV-P (Toyo Ink, Japan)), in which luciferase gene was ligated to SV40-derived minimal promoter, we constructed a plasmid designated pRRE3-luc by inserting 3 copies of chemically synthesized oligonucleotides (Sequence: CAGGATATGACTCT, derived from mouse NVL-3 (M. A. Reddy et al.(1992)Mol. Endocrinol., 6, 1051)) into upstream of the promoter. v-ki-ras-transformed NIH3T3 cells (DT cells, provided by Dr. Makoto Noda (Kyoto Univ., School of medicine)) were transfected with this plasmid by liposome-mediated transfection and transfected cell lines stably incorporated and maintained each plasmid were obtained. We named pGV-P and pRRE3-transfected cell line as DT-C and DT-R, respectively and used in the assay described below.
# 2) Preparation of Samples
# i) All the cell lines were cultured in Dulbecco's Modified Essential Medium (DMEM: 10% Fetal Calf Serum(FCS: Hyclone, USA)) including […] kanamycin (Meiji Seika, Japan) in humidified incubator under condition of 5% CO2 at 37° C.
# ii) DT-C and DT-R cells were seeded at 2500 cells/well into flat-bottom 96 well multiplate (Sumitomo bakelite) and incubated for 24 hours.
# iii) Test compounds were prepared as 1 mg/ml DMSO solution.
# iv) The solution of test compounds were added to the culture. Tested compounds are used at the concentration from […] to 0.51 ng/ml with by 3-fold dilution.
# v) After 24 hours, the culture supernatant was completely aspirated and […] of cell-lysing solution (PGC-50 (Toyo Ink, Japan)) was added before cells were dried up. In order to the cells were lysed completely, multiwell plates were left at room temperature for 10 to 30 min. The plates were wrapped up and stored at −20° C. till the day of measurement.
# 3) Measurement of Samples
# i) Melt the samples by putting 96 well multiplate at 37° C. and add 90 μl/well 25 mM Tris (pH 7.5).
# ii) Transfer 50 μl of the sample (110 μl) to the 96 well microplate for measurement (Microlite 1 (Dynatech)).
# iii) Measure the samples by the luminometer, LUMINOUS CT9000D (Dia-Yatron, Japan). We used Pickagene luminescence kit PGL2000 or LT2.0 (Toyo Ink, Japan) as substrates for luminescence measurement (50 μl/well).
# 4) Judgment of the Results
# i) The luciferase activity of DT-C cells and DT-R cells were plotted in the graph where the relative activity and the compound concentration were expressed as Y-axis and X-axis, respectively. We judged by the degree of dissociation between the activities of DT-C cells and DT-R cells as an index.
# ii) Concretely, efficacy of the compound was expressed by two values described below.
# b) Among the points of concentration tested, the concentration which is the nearest to 50% inhibition concentration at DT-C cells (IC50-C), was shown as an index of non-specific transcription-inhibitory effect or of cytotoxicity. In case of positive compounds, 50% inhibition concentration above the area of active concentration in DT-C cells was expressed as IC50-C.
# human colon cancer HT29 = assay: In vitro cell growth inhibition test, MTT assay; type: cell-based; conditions: MTT assay 4 days after compound addition
# How it was run: (§1)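 Read-out is MTT-based cell growth inhibition, run in parallel on human lung, colon and pancreatic (PANC-1) tumour lines.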
# [3] = test system: human lung adenocarcinoma A549; assay: In vitro cell growth inhibition test, MTT assay; type: cell-based; conditions: MTT assay 4 days after compound addition
# How it was run: as §1
# [4] = test system: human pancreas cancer PANC-1; assay: In vitro cell growth inhibition test, MTT assay; type: cell-based; conditions: MTT assay 4 days after compound addition
# How it was run: as §1
# [5] = test system: human squamous lung cancer Ma44; assay: In vitro cell growth inhibition test, MTT assay; type: cell-based; conditions: MTT assay 4 days after compound addition
# How it was run: as §1
# [6] = test system: human squamous lung cancer RERF-RC-AI; assay: In vitro cell growth inhibition test, MTT assay; type: cell-based; conditions: MTT assay 4 days after compound addition
# How it was run: as §1
"IC50, HT29 (human colon cancer HT29)","IC50, A549 [3]","IC50, PANC-1 [4]","IC50, Ma44 [5]","IC50, RERF-LC-AI [6]",Structure (SMILES),MAC (Minimal Active Concentration) [1],IC50-C [2]
0.0071 µg/mL,0.012 µg/mL,0.0076 µg/mL,0.0087 µg/mL,0.004 µg/mL,CCNC(=Nc1ncncc1CSc1nnc(-c2ccccc2N)o1)NCC [Compound A-33],0.0137 µg/mL,>10 µg/mL
0.016 µg/mL,0.052 µg/mL,0.029 µg/mL,0.048 µg/mL,0.012 µg/mL,CCNC(=Nc1nc(C)ncc1CSc1nnc(-c2ccc(OC)cc2)o1)NCC [Compound A-73],0.123 µg/mL,>10 µg/mL
0.0038 µg/mL,0.0087 µg/mL,0.0065 µg/mL,0.0058 µg/mL,0.004 µg/mL,CCNC(=Nc1nc(C)ncc1CSc1nnc(-c2ccc([N+](=O)[O-])cc2N)o1)NCC [Compound A-75],<0.000508 µg/mL,>10 µg/mL
0.024 µg/mL,0.1 µg/mL,0.05 µg/mL,0.062 µg/mL,0.018 µg/mL,CCNC(=Nc1nc(C)ncc1CSc1nnc(-c2ccc(Cl)cc2Cl)o1)NCC [Compound A-80],0.370 µg/mL,3.33 µg/mL
0.007 µg/mL,0.023 µg/mL,0.016 µg/mL,0.032 µg/mL,0.009 µg/mL,CCNC(=Nc1nc(C)ncc1CSc1nnc(-c2ccc(N)cc2F)o1)NCC [Compound A-81],0.0412 µg/mL,>10 µg/mL
0.043 µg/mL,0.14 µg/mL,0.036 µg/mL,0.097 µg/mL,0.02 µg/mL,CCNC(=Nc1nc(C)ncc1CSc1nnc(-c2ccc(O)cc2)o1)NCC [Compound A-88],0.123 µg/mL,>10 µg/mL
0.05 µg/mL,0.15 µg/mL,0.049 µg/mL,0.86 µg/mL,0.016 µg/mL,CCNC(=Nc1nc(C)ncc1CSc1nnc(-c2ccc(N)c(O)c2)o1)NCC [Compound A-89],0.123 µg/mL,>10 µg/mL
0.043 µg/mL,0.082 µg/mL,0.056 µg/mL,0.086 µg/mL,,CCNC(=Nc1nc(C)ncc1CSc1nnc(-c2ccc(C(F)(F)F)cc2)o1)NCC [Compound A-106],0.370 µg/mL,>10 µg/mL
0.022 µg/mL,0.027 µg/mL,0.027 µg/mL,0.029 µg/mL,,CCNC(=Nc1nc(C)ncc1CSc1nnc(-c2ccc(Br)cc2)o1)NCC [Compound A-108],0.123 µg/mL,>10 µg/mL
0.1 µg/mL,1.2 µg/mL,0.068 µg/mL,0.2 µg/mL,0.023 µg/mL,CCNC(=Nc1ncncc1CSc1nnc(-c2ccc(CN)cc2)o1)NCC [Compound A-119],0.37 µg/mL,>10 µg/mL
0.02 µg/mL,0.058 µg/mL,0.02 µg/mL,0.02 µg/mL,0.02 µg/mL,CCNC(=Nc1ncncc1CSc1nnc(-c2ccc([N+](=O)[O-])cc2)o1)NC(C)C [Compound A-121],<0.000508 µg/mL,>10 µg/mL
0.018 µg/mL,0.028 µg/mL,0.017 µg/mL,0.017 µg/mL,0.015 µg/mL,CCCNC(=Nc1nc(C)ncc1CSc1nnc(-c2ccc([N+](=O)[O-])cc2)o1)NCCC [Compound A-127],0.0137 µg/mL,3.33 µg/mL
0.042 µg/mL,0.047 µg/mL,0.026 µg/mL,0.044 µg/mL,0.036 µg/mL,CCCCNC(=Nc1nc(C)ncc1CSc1nnc(-c2ccc([N+](=O)[O-])cc2)o1)NCCCC [Compound A-128],0.0412 µg/mL,3.33 µg/mL
0.029 µg/mL,0.074 µg/mL,0.018 µg/mL,0.039 µg/mL,0.023 µg/mL,CCNC(=Nc1nc(C(C)C)ncc1CSc1nnc(-c2ccc([N+](=O)[O-])cc2)o1)NCC [Compound A-130],0.123 µg/mL,3.33 µg/mL
0.025 µg/mL,0.03 µg/mL,0.028 µg/mL,0.028 µg/mL,0.015 µg/mL,CCNC(=Nc1nc(CC)ncc1CSc1nnc(-c2ccc([N+](=O)[O-])cc2)o1)NCC [Compound A-131],0.0412 µg/mL,>10 µg/mL
0.068 µg/mL,0.047 µg/mL,0.015 µg/mL,0.015 µg/mL,0.01 µg/mL,CCNC(=Nc1nc(C)ncc1CSc1nnc(-c2ccc([N+](=O)[O-])cc2)o1)NC [Compound A-133],0.0137 µg/mL,>10 µg/mL
0.011 µg/mL,0.031 µg/mL,0.016 µg/mL,0.016 µg/mL,0.012 µg/mL,CCCCNC(=Nc1nc(C)ncc1CSc1nnc(-c2ccc([N+](=O)[O-])cc2)o1)NCC [Compound A-136],0.0137 µg/mL,3.33 µg/mL
0.03 µg/mL,0.046 µg/mL,0.026 µg/mL,0.04 µg/mL,0.043 µg/mL,CCCNC(=Nc1nc(CC)ncc1CSc1nnc(-c2ccc([N+](=O)[O-])cc2)o1)NCCC [Compound A-138],0.0412 µg/mL,1.11 µg/mL
0.08 µg/mL,,0.009 µg/mL,0.009 µg/mL,0.006 µg/mL,CCCNC(=Nc1ncncc1CSc1nnc(-c2ccc([N+](=O)[O-])cc2)o1)NCCC [Compound A-155],0.00457 µg/mL,3.33 µg/mL
0.008 µg/mL,,0.015 µg/mL,0.044 µg/mL,0.005 µg/mL,CCCNC(N)=Nc1nc(C)ncc1CSc1nnc(-c2ccc(N)cc2)o1 [Compound A-157],0.0137 µg/mL,>10 µg/mL
0.025 µg/mL,,0.03 µg/mL,0.032 µg/mL,0.007 µg/mL,CCCNC(N)=Nc1nc(C)ncc1CSc1nnc(-c2ccc([N+](=O)[O-])cc2)o1 [Compound A-158],0.0412 µg/mL,>10 µg/mL
